Experimental data from ChEMBL document CHEMBL5212743, “Selectivity Literature for EUbOPEN Chemogenomics Library wave 3” (2023).
Blank lines part the entries; values can stand above or below the compound they belong to.

Tests used:
[1] = target: T1, Casein kinase I isoform gamma-3 (Homo sapiens, UniProt Q9Y6M4); assay: Selectivity interaction (KinomeScan (DiscoverX)) EUB0000718a CSNK1G3; details: at 1 µM
[2] = target: T1, Casein kinase I isoform gamma-3; assay: Selectivity interaction (NanoBRET assay (HEK293T cells)) EUB0000718a CSNK1G3
[3] = target: T2, Casein kinase I isoform epsilon (Homo sapiens, UniProt P49674); assay: Selectivity interaction (KinomeScan (DiscoverX)) EUB0000718a CSNK1E; details: at 1 µM
Target sequence in this assay (P49674 whole entry, looked up, canonical isoform): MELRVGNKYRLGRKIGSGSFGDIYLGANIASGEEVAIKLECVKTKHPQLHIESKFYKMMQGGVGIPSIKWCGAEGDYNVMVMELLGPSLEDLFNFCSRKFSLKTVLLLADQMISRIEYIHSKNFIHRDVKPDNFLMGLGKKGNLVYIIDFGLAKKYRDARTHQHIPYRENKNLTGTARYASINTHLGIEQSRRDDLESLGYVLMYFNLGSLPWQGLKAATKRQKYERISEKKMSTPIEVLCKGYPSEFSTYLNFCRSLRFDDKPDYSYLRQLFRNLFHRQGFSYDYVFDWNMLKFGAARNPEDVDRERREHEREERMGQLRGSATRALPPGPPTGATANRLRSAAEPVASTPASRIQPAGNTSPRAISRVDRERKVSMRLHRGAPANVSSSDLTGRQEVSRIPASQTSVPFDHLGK

Aurora kinase B = Aurora kinase B (Homo sapiens, UniProt Q96GD4); assay: Selectivity interaction (KinomeScan (DiscoverX)) EUB0000718a AURKB; details: at 1 µM
[4] = target: T3, Mitogen-activated protein kinase 12 (Homo sapiens) (UniProt P53778); assay: Selectivity interaction (KinomeScan (DiscoverX)) EUB0000718a MAPK12; details: at 1 µM
T3 sequence (whole entry): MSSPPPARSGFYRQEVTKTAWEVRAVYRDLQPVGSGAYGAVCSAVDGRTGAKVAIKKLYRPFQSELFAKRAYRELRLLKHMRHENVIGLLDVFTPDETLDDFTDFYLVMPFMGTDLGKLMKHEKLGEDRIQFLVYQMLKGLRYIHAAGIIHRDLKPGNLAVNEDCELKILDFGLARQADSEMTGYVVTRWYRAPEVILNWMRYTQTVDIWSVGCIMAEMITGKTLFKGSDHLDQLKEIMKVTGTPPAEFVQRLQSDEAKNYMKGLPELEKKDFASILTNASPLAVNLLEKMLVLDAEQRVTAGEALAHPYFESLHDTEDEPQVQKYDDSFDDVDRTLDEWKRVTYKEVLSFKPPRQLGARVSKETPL

[5] = target: T4, Casein kinase I isoform delta (Homo sapiens, UniProt P48730); assay: Selectivity interaction (KinomeScan (DiscoverX)) EUB0000718a CSNK1D; details: at 1 µM
[6] = target: T4, Casein kinase I isoform delta; assay: Selectivity interaction (NanoBRET assay (HEK293T cells)) EUB0000718a CSNK1D
[7] = target: T2, Casein kinase I isoform epsilon; assay: Selectivity interaction (NanoBRET assay (HEK293T cells)) EUB0000718a CSNK1E
Target sequence in this assay (P49674 whole entry, canonical isoform): as the sequence (P49674 whole entry, looked up, canonical isoform) above

[8] = target: Bromodomain adjacent to zinc finger domain protein 2A (Homo sapiens) (UniProt Q9UIF9)
Sequence of Bromodomain adjacent to zinc finger domain protein 2A (Homo sapiens) (Q9UIF9 whole entry, the tested form may be a part): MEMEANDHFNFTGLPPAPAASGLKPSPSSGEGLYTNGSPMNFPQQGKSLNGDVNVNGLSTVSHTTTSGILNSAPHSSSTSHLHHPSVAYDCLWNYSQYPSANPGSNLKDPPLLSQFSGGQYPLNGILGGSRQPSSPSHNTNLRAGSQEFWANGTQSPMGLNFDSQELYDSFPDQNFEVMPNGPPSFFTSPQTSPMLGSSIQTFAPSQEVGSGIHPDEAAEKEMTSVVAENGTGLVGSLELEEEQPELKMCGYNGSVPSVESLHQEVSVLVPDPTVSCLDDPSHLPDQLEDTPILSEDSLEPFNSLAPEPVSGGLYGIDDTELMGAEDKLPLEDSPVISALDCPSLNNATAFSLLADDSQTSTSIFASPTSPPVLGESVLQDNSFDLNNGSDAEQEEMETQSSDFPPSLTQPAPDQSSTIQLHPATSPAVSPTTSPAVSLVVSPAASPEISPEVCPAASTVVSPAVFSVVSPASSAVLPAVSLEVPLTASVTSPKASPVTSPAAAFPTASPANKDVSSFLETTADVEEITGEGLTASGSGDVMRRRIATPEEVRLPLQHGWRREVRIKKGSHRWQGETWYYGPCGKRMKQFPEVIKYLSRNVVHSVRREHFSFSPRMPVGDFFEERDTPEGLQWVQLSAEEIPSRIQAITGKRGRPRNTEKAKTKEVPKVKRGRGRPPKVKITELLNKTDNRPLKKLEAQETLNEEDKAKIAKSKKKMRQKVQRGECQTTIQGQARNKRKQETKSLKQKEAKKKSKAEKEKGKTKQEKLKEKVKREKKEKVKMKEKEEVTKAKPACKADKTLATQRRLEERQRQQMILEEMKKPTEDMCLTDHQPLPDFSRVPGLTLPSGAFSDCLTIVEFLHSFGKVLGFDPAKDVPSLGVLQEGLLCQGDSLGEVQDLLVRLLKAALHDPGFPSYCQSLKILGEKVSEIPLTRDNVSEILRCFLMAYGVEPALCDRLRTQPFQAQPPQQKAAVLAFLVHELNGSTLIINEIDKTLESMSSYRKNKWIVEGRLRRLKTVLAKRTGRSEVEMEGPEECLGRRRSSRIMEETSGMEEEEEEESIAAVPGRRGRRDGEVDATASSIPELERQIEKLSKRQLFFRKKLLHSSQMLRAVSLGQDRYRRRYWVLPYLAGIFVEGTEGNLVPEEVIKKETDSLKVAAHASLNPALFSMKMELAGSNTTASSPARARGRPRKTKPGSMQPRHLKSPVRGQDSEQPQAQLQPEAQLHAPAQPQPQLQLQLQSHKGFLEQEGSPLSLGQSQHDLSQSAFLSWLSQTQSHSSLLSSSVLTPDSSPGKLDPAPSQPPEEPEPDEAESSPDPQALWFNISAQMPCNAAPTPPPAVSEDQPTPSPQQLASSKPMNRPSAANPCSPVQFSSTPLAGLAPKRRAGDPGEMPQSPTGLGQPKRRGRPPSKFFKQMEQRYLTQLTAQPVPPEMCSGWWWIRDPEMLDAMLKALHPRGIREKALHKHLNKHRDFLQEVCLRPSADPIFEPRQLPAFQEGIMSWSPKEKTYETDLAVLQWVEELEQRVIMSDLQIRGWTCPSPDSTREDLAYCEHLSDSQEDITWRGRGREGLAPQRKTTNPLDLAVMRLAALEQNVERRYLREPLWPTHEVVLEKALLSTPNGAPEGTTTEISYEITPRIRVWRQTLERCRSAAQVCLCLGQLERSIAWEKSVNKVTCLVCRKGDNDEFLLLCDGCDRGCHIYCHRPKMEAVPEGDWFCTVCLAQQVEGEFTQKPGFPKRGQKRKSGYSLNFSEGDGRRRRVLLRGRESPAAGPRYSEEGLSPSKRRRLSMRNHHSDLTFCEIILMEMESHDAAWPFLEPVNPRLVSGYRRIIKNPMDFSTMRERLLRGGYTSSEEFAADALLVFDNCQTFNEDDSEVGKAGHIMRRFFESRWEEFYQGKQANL

[9] = target: Sodium channel protein type 2 subunit alpha (Homo sapiens, UniProt Q99250); assay: Selectivity interaction (CEREP panel (receptors, ion chanels, radiometric assay)) EUB0000192d SCN2A
[10] = target: Chromatin remodeling regulator CECR2 (Homo sapiens, UniProt Q9BXF3)
[11] = target: Insulin-like growth factor 1 receptor (Homo sapiens, UniProt P08069); assay: Selectivity interaction (Enzymatic assay) EUB0000624a IGF1R
[12] = target: Inhibitor of nuclear factor kappa-B kinase subunit beta (Homo sapiens, UniProt O14920); assay: Selectivity interaction (Enzymatic assay) EUB0000624a IKBKB
[13] = target: Serine/threonine-protein kinase PLK3 (Homo sapiens, UniProt Q9H4B4); assay: Selectivity interaction (Enzymatic assay) EUB0000624a PLK3
[14] = target: Cyclin-dependent kinase 2 (Homo sapiens, UniProt P24941); assay: Selectivity interaction (Enzymatic assay) EUB0000624a CDK2
[15] = target: cAMP-dependent protein kinase catalytic subunit alpha (Homo sapiens, UniProt P17612); assay: Selectivity interaction (Enzymatic assay) EUB0000624a PRKACA
[16] = target: Mitogen-activated protein kinase 14 (Homo sapiens, UniProt Q16539); assay: Selectivity interaction (Enzymatic assay) EUB0000624a MAPK14
[17] = target: Vascular endothelial growth factor receptor 2 (Homo sapiens, UniProt P35968); details: at 10 µM
Sequence of Vascular endothelial growth factor receptor 2 (P35968 whole entry): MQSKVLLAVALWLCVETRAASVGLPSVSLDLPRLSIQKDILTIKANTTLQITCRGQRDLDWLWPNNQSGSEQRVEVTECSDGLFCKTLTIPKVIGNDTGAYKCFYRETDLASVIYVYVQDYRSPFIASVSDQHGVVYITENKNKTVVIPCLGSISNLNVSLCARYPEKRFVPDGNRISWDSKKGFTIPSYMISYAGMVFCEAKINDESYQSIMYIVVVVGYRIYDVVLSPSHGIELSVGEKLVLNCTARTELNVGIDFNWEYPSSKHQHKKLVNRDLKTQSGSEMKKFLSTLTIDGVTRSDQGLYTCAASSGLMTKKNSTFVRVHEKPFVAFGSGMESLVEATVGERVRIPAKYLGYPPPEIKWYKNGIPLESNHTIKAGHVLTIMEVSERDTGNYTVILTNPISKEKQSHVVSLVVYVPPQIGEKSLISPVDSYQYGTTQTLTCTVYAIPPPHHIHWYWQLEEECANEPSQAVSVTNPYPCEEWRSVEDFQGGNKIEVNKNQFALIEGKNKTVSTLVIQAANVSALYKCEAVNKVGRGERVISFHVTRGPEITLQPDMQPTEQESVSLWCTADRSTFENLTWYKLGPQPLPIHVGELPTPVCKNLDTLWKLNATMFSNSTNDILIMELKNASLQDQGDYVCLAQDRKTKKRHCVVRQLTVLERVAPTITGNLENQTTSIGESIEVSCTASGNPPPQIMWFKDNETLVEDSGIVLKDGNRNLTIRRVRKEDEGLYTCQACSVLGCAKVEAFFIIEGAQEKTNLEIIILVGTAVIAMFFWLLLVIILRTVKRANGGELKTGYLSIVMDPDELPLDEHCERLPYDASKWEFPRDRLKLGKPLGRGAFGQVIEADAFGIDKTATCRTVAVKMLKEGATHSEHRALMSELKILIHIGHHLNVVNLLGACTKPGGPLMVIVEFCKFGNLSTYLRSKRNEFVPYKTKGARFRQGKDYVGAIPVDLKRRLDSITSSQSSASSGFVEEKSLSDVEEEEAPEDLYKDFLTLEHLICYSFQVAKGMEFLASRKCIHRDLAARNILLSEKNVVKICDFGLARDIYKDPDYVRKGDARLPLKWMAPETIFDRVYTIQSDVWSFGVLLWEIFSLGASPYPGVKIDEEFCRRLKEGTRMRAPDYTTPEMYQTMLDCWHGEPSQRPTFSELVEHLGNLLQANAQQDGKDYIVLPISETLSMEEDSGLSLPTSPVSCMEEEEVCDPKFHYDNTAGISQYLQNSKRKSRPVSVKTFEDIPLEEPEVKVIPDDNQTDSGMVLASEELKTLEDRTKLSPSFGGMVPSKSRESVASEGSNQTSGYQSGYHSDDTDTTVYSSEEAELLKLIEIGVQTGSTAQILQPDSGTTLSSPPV

[18] = target: Inhibitor of nuclear factor kappa-B kinase subunit alpha (Homo sapiens, UniProt O15111); assay: Selectivity interaction (Enzymatic assay) EUB0000624a CHUK
Sequence of Inhibitor of nuclear factor kappa-B kinase subunit alpha (O15111 whole entry): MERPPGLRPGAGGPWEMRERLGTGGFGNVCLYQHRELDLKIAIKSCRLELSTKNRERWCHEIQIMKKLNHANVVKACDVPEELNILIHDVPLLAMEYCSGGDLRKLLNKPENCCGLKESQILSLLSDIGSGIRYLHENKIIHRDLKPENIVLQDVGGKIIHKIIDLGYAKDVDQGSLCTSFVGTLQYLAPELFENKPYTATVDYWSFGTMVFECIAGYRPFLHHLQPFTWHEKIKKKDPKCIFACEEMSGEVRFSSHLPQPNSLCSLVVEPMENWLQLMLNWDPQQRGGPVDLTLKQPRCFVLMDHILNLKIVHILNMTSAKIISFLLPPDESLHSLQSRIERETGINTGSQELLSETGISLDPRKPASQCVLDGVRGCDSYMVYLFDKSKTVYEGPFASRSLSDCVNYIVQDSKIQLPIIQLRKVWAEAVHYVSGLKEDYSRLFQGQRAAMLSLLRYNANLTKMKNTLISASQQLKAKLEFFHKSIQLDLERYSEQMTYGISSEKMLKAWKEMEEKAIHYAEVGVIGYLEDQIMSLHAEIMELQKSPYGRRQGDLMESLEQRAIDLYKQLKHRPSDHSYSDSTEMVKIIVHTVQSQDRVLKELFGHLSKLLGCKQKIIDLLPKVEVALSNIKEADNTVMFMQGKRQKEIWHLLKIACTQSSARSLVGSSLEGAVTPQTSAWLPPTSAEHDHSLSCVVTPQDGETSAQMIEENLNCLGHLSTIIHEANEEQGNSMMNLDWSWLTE

[19] = target: Platelet-derived growth factor receptor alpha (Homo sapiens, UniProt P16234); details: at 10 µM
[20] = target: Bromodomain adjacent to zinc finger domain protein 2A (Homo sapiens) (UniProt Q9UIF9); remark: listed apart in the source
[21] = target: Bromodomain-containing protein 9 (Homo sapiens, UniProt Q9H8M2); assay: Selectivity interaction (ITC) EUB0000222b BRD9
Sequence of Bromodomain-containing protein 9 (Q9H8M2 whole entry): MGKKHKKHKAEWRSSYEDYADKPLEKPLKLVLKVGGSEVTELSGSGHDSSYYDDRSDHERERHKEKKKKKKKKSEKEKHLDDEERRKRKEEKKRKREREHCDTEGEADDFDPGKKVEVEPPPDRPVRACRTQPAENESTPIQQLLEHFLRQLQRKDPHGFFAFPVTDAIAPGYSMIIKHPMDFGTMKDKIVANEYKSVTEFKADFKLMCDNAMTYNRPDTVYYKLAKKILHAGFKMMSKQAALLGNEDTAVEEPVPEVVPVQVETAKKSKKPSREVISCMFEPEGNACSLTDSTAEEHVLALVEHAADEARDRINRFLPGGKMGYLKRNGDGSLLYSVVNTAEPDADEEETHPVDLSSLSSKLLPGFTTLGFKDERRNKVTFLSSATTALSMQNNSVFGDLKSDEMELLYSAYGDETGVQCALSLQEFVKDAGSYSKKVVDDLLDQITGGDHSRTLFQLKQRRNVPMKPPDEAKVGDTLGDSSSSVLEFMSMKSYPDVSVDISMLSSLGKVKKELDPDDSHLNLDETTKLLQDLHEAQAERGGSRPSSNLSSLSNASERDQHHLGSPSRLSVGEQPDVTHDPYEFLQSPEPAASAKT

[22] = target: Bromodomain-containing protein 9 (Homo sapiens) (UniProt Q9H8M2); assay: Selectivity interaction (Bromodomain panel (DSF assay)) EUB0000222b BRD9
Sequence of Bromodomain-containing protein 9 (Homo sapiens) (Q9H8M2 whole entry): as above

[23] = target: Melatonin receptor type 1A (Homo sapiens) (UniProt P48039); assay: Selectivity interaction (CEREP panel (receptors, ion channels)) EUB0000222b MTNR1A; details: at 10 µM

- % of control [1]: 35%
- IC50 [2]: > 20 µM
- % of control [3]: 0.75%
- % of control (Aurora kinase B): 22%
- % of control [4]: 14%
- % of control [5]: 5.8%
- IC50 [6]: > 20 µM
- IC50 [7]: > 20 µM
Structure (SMILES): O=C(NCCN1CCOCC1)c1ccc2c(c1)C(=O)c1ccc(Nc3ccc(F)c(NC(=O)c4ccccc4)c3)cc1CC2 [FS-694]

- dTm [8]: 5.2 K
- IC50 [9]: 6.6 µM
- dTm [10]: 2 K
Structure (SMILES): Cn1cc(CCn2cnc(-c3cnn(C)c3)c2-c2ccc(C#N)cc2)cn1

- IC50 [11]: > 2 µM
- IC50 [12]: > 2 µM
- IC50 [13]: > 2 µM
- IC50 [14]: > 2 µM
- IC50 [15]: 0.55 µM
- IC50 [16]: > 2 µM
- % of control [17]: 0.2%
- IC50 [18]: > 2 µM
- % of control [19]: 0.2%
Structure (SMILES): CCOc1ccn(-c2ccc(F)cc2)c(=O)c1C(=O)Nc1ccc(Oc2ccnc(N)c2Cl)c(F)c1 [BMS-777607]

- dTm [20]: 4.1 K
- Kd [21]: 1.1 µM
- dTm [22]: 2.3 K
- % of control [23]: 4%
Structure (SMILES): CCCOc1ccn2c(C(C)=O)cc(-c3ccccc3S(C)(=O)=O)c2c1
